# Numbers after ± are expanded uncertainties.
# Experiments:
# [1] = 298.2 K; 101.33 kPa; Liquid; Vibrating tube method
# [2] = refractive index (Na D-line) (dimensionless); conditions: 298.2 K; 101.33 kPa; Liquid; Standard Abbe refractometry
SMILES,mass density [1] [kg/m3],refractive index [2]
CC(C)CCO [3-methylbutan-1-ol],807.16 ± 0.35,1.40528 ± 0.00042
CCOC(=O)CCC(=O)OCC [diethyl butanedioate],1035.34 ± 0.4,1.41967 ± 0.00042
CCOC(=O)CCCCCCCCC(=O)OCC [diethyl decanedioate],959.18 ± 0.37,1.43485 ± 0.00042
CCCCCCCC(=O)OCC [ethyl octanoate],862.23 ± 0.36,1.41572 ± 0.00042
CCCCC(=O)OCC [ethyl pentanoate],872.36 ± 0.36,1.39841 ± 0.00042
O=CO [formic acid],1214.1 ± 0.51,1.36939 ± 0.00042

# — the NIST ThermoML archive (doi:10.1016/j.fluid.2016.08.041)
